Assay results: patent publication US8455547B2, “Substituted cyclopentanes having prostaglandin activity” (Allergan, Inc., priority 2008, dated 2013)

Legend:
EP4 [1] = target: T1, EP4 (Homo sapiens, UniProt P35408); assay: EP4 Ca2+ signal assay; assay type: cell-based; conditions: for EP4 Ca2+ signal % PGE2: relative to PGE2
Text: (§1) U.S. patent application Ser. No. 11/553,143, filed on Oct. 26, 2006, incorporated by reference herein, describes the methods used to obtain the in vitro data in Tables 1 and 2 below.

EP2 [2] = target: T2, EP2 (Homo sapiens, UniProt P43116); assay: EP2 binding assay
Text: as §1

EP2 [3] = target: T2, EP2; assay: EP2 Ca2+ signal assay; assay type: cell-based; conditions: for EP2 Ca2+ signal % PGE2: relative to PGE2
Text: as §1

EP2 [4] = target: T2, EP2; assay: EP2 cAMP assay; assay type: cell-based
Text: as §1

EP4 [5] = target: T1, EP4; assay: EP4 binding assay
Text: as §1

TP = target: T3, TP (Homo sapiens, UniProt P21731); assay: TP functional assay; assay type: cell-based
T3 sequence (P21731 1-343): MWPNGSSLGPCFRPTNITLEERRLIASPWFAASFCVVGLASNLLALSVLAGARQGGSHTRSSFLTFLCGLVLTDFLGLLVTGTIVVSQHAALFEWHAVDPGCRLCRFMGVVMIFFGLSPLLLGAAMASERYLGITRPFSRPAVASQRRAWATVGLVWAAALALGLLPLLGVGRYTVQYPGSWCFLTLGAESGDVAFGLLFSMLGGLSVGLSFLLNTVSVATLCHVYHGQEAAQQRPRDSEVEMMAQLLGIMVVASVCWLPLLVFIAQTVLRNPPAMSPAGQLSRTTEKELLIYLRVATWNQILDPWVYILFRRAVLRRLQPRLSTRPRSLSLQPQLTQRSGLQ
Text: as §1

EP1 = target: T4, EP1 (Homo sapiens, UniProt P34995); assay: EP1 functional assay; assay type: cell-based
T4 sequence (P34995 1-402): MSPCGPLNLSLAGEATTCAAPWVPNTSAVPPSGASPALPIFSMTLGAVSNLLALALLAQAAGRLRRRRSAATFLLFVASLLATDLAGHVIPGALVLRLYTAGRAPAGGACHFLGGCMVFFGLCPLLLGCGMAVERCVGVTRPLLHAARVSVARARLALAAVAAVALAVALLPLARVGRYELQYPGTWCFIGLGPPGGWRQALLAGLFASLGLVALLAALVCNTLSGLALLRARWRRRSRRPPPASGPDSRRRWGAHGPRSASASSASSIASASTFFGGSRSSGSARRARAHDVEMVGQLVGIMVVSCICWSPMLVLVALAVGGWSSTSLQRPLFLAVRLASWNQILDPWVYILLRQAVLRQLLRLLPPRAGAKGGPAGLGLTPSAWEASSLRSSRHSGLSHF
Text: as §1

EP3 = target: T5, EP3 (Homo sapiens, UniProt P43115); assay: EP3 functional assay; assay type: cell-based
T5 sequence (P43115 1-390): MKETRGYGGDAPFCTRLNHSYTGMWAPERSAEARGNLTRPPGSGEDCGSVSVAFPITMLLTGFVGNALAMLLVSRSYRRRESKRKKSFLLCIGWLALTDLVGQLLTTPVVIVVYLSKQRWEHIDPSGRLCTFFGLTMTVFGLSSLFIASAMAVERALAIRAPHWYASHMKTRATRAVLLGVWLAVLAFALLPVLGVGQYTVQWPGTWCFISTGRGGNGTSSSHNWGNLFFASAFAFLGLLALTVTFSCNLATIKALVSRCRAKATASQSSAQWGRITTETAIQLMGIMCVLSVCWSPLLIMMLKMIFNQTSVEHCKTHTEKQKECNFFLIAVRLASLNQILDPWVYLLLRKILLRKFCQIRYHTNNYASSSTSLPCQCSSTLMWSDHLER
Text: as §1

T1 sequence (P35408 whole entry): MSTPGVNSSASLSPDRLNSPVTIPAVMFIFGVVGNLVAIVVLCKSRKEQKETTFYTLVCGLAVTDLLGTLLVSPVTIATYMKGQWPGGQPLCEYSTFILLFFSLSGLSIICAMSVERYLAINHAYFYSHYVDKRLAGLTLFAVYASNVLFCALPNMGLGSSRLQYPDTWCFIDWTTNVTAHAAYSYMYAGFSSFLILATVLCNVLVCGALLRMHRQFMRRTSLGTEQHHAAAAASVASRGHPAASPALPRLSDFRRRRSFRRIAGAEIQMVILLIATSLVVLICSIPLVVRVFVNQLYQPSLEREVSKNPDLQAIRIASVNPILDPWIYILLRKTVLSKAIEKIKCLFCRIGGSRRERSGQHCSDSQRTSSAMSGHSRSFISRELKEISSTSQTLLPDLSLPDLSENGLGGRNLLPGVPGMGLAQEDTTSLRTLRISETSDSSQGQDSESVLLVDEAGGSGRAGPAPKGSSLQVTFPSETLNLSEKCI
T2 sequence (P43116 whole entry): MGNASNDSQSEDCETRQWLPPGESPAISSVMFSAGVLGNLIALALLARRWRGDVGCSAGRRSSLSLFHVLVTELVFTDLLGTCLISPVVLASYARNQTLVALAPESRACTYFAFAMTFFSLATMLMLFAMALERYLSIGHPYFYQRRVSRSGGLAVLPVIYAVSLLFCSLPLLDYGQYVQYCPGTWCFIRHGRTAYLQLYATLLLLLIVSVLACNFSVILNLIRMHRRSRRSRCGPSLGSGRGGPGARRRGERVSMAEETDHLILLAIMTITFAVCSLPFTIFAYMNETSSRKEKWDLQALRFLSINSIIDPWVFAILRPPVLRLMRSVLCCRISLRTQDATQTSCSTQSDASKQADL

EC50 (EP4 [1]) [nM]	EP4 Ca2+ signal % PGE2 (EP4 [1]) [%]	EC50 (EP2 [2]) [nM]	EP2 Binding % Inh (EP2 [2]) [%]	EC50 (EP2 [3]) [nM]	EP2 Ca2+ signal % PGE2 (EP2 [3]) [%]	EC50 (EP2 [4]) [nM]	EP4 Binding % Inh (EP4 [5]) [%]	EC50 (TP) [nM]	EC50 (EP1) [nM]	EC50 (EP3) [nM]	EC50 (EP4 [5]) [nM]	SMILES
727	99	1220	78	109	100	1.47	29					C[C@@H](O)CCC[C@H](O)/C=C/[C@@H]1[C@@H](CCCCCCC(=O)O)[C@H](Cl)C[C@H]1O
46	107	25	99	4	107	0.03	81	178	13	6	885	C[C@@H](O)CCC[C@H](O)/C=C/[C@@H]1[C@@H](C/C=C\CCCC(=O)O)[C@H](Cl)C[C@H]1O
